According to US9017985B2, “Photosynthetic microorganisms enriched in selenium using selenohydroxy acid compounds, used thereof in nutrition, cosmetics and pharmacy” (Metabolium, priority 2008, dated 2015):

Assays:
[1] = test system: Arthrospira platensis 3054-E0001; experiment: Selenium enrichment of Arthrospira platensis microalga cultured with a selenium source, autotrophic conditions; analysis of selenium components; format: cell-based; settings: 25 mgSe/l added once just after inoculation (T=0); 10 days incubation; mean of triplicate
Protocol: In these tests, the strain used is a strain of Arthrospira platensis 3054-E0001.
The 3054-50001 strain was cultured under autotrophic conditions in the following medium:
(§1) The pH was adjusted to 7.2 and the medium was autoclaved at 121° C. for 15 minutes.
The organic source of selenium, namely 2-hydroxy-4-methylselenobutanoic acid (THD-177, Tetrahedron SAS, France, CAS: 873660-49-2) was administered at a concentration of 25 mg/l on a selenium equivalent basis, i.e. 62.5 mg/l of 2-hydroxy-4-methylselenobutanoic acid.
The inorganic selenium source ([…], sodium selenite) was administered at a concentration of 25 mg/l on a selenium equivalent basis, i.e. 54.4 mg/l of sodium selenite.
The compound containing selenium was added just one time, just after the inoculation with the Arthrospira platensis strain (i.e. T=0).
After incubation for 10 days, the cell pellet was filtered through a 0.2 micron Nalgene membrane, and the cell retentate was rinsed with physiological saline. The wet cell mass was lyophilized for analysis of the constituents containing selenium (total selenium, selenomethionine and sodium selenite).
(§2) The total selenium was assayed by ICP coupled to detection by mass, after mineralization of the sample. The speciation of the selenium was carried out by high performance liquid chromatography coupled to tandem mass detection, after enzyme digestion of the sample, according to the method described by Lobinsky et al., in Mester, Z. et al. (2006) Annal. Bioanal. Chem. 385: 168-180.
Table 2 below indicates the average values, on a selenium equivalent basis, obtained in triplicate for incubation times of 10 days.
In these tests, the strain used is a strain of Arthrospira platensis 3054-E0001. […]

[2] = test system: Chlorella vulgaris SAG211-11B; experiment: Selenium enrichment of Chlorella vulgaris microalga cultured with a selenium source, mixotrophic conditions; analysis of selenium components; format: cell-based; settings: 20 mgSe/l added once in exponential growth phase; 7 days incubation; mean of triplicate
Protocol: In these tests, the strain used is a strain of Chlorella vulgaris SAG211-11B: an axenic strain originating from the SAG collection of the University of Göttingen (SAG: Sammlung von Algenkulturen der Universität Göttingen [Collection of Alga Cultures of the University of Göttingen]) which was cultured under mixotrophic conditions in the following medium:
as §1
The organic source of selenium, namely 2-hydroxy-4-methylselenobutanoic acid (THD-177, Tetrahedron SAS, France, CAS: 873660-49-2) was administered at a concentration of 20 mg/l on a selenium equivalent basis, i.e. 50 mg/l of 2-hydroxy-4-methylselenobutanoic acid.
The inorganic selenium source ([…], sodium selenite) was administered at a concentration of 20 mg/l on a selenium equivalent basis, i.e. 43.9 mg/l of sodium selenite.
The compound containing selenium was added just one time in the exponential growth phase of the Chlorella vulgaris strain (i.e. 3 days after the inoculation).
After incubation for 7 days, the medium was filtered through a 0.2 micron Nalgene membrane (Ref a-PES, diameter 90 mm), and the cell retentate was rinsed with physiological saline. The wet cell mass was lyophilized for analysis of the constituents containing selenium (total selenium, selenomethionine and sodium selenite).
as §2
Table 1 below indicates the average values, on a selenium equivalent basis, obtained in triplicate for incubation times of 7 days.

[3] = diet supplementation; cited from earlier work

SMILES | Se(IV) [1] [mgSe/kg biomass] | SeMethionine [1] [mgSe/kg biomass] | Total Se [1] [mgSe/kg biomass] | Se(IV) [2] [mgSe/kg biomass] | SeMethionine [2] [mgSe/kg biomass] | Total Se [2] [mgSe/kg biomass] | Toxicity compared with an intake in the form of sodium selenite [3]
O=[Se](O)O [NaSe, sodium selenite] | 5.1 ± 0.3 | 13 ± 3 | 177 ± 2 | 4.1 ± 0.4 | 29 ± 2 | 144 ± 5 | 
C[Se]CC[C@H](N)C(=O)O [L(+)-selenomethionine] |  |  |  |  |  |  | much less toxic
